This note sets out measurements from ChEMBL document CHEMBL3046648, “Herbicidally Active N-(1-Arylethenyl)-2-chloroacetamides Bearing an Alkyloxyalkyl Moiety” (1991).

Type in all cases: functional
A short description of experiment [1]: Herbicidal activity against annual broad-leaf weeds assessed as killing at 1 g/a at 25 degC measured after 3 weeks.
The nature of experiment [2]: Herbicidal activity against annual broad-leaf weeds assessed as killing at 10 g/a at 25 degC measured after 3 weeks.
In experiment [3] the test system is Pontederia vaginalis. Put plainly: Herbicidal activity against Monochoria vaginalis assessed as killing at 1 g/a at 25 degC measured after 3 weeks.
The subject of experiment [4] is Pontederia vaginalis. Put plainly: Herbicidal activity against Monochoria vaginalis assessed as killing at 10 g/a at 25 degC measured after 3 weeks.
The subject of experiment [5] is Schoenoplectiella juncoides. Nature of the experiment: Herbicidal activity against Schoenoplectiella juncoides assessed as killing at 1 g/a at 25 degC measured after 3 weeks.
In experiment [6] the test system is Schoenoplectiella juncoides. Nature of the experiment: Herbicidal activity against Schoenoplectiella juncoides assessed as killing at 10 g/a at 25 degC measured after 3 weeks.
Experiment [7] has as its system Cyperus difformis. Nature of the experiment: Herbicidal activity against Cyperus difformis assessed as killing at 1 g/a at 25 degC measured after 3 weeks.
Experiment [8] deals with Cyperus difformis. Put plainly: Herbicidal activity against Cyperus difformis assessed as killing at 10 g/a at 25 degC measured after 3 weeks.
In experiment [9] the test system is Echinochloa oryzicola. Nature of the experiment: Herbicidal activity against Echinochloa oryzicola assessed as killing at 1 g/a at 25 degC measured after 3 weeks.
The test system of experiment [10] is Echinochloa oryzicola. Nature of the experiment: Herbicidal activity against Echinochloa oryzicola assessed as killing at 10 g/a at 25 degC measured after 3 weeks.

Values joined by “and” are separate entries in the source; they are usually repeats but may differ in a detail not shown here. Equal values may be shown once.

Turning to `CCC(C)=C(c1ccccc1)N(CCOC)C(=O)CCl`, the Activity in [1] was 40%; in experiment [2], 100%; with Pontederia vaginalis [3], 0%; in the experiment on Pontederia vaginalis [4], 100%; in experiment [5], 0%; in [6], 100%. The Activity in the experiment with Cyperus difformis [7] is listed as 80%; with Cyperus difformis [8] it was 100%; in the experiment on Echinochloa oryzicola [9], 80%; in the experiment on Echinochloa oryzicola [10] it was 100%.
As for `COCCN(C(=O)CCl)C(=C(C)C)c1ccc(Cl)cc1`, the Activity was found to be 100% in [1]; 100% in [2]; 100% with Pontederia vaginalis [3]; 100% in the experiment with Pontederia vaginalis [4]; 80% in [5]; 100% in [6]. The Activity in the experiment on Cyperus difformis [7], with Cyperus difformis [8], in the experiment with Echinochloa oryzicola [9] and in the experiment on Echinochloa oryzicola [10] was 100% in each case.
In the case of `COC(CN(C(=O)CCl)C(=C(C)C)c1ccccc1)OC`, the Activity was 80% and 100% in experiment [1]; 100% in [2]; 0% in the experiment with Pontederia vaginalis [3]; 100% in the experiment with Pontederia vaginalis [4]; 0% in experiment [5]; 100% in experiment [6]. The Activity with Cyperus difformis [7] is recorded as 100%; in the experiment with Cyperus difformis [8], 100%; with Echinochloa oryzicola [9], 40%; with Echinochloa oryzicola [10], 100%.
For `COCCN(C(=O)CCl)C(=C1CCCCC1)c1ccccc1`, the Activity came to 60% in [1]; 80% in [2]; 0% in the experiment with Pontederia vaginalis [3]; 100% in the experiment on Pontederia vaginalis [4]; 0% in [5]; 100% in experiment [6]. In addition, the Activity in the experiment with Cyperus difformis [7] amounted to 0%; in the experiment with Cyperus difformis [8] it was 100%; with Echinochloa oryzicola [9], 20%; in the experiment on Echinochloa oryzicola [10], 100%.
In the case of `COCCN(C(=O)CCl)C(=C(C)C)c1cccc(Oc2ccccc2)c1`, the Activity in experiment [1] stood at 40%; in experiment [2], 100%; in the experiment with Pontederia vaginalis [3], 0%; in the experiment on Pontederia vaginalis [4] it was 100%; in [5], 60%; in experiment [6], 60%. Further, the Activity with Cyperus difformis [7] was 80%; with Cyperus difformis [8], 100%; in the experiment with Echinochloa oryzicola [9], 100%; in the experiment with Echinochloa oryzicola [10] it was 100%.
As to `COCCCN(C(=O)CCl)C(=C(C)C)c1ccccc1`, the Activity in experiment [1] stood at 0%; in [2], 100%; with Pontederia vaginalis [3], 100%; in the experiment with Pontederia vaginalis [4], 100%; in experiment [5], 40%; in experiment [6], 100%. For the same molecule, the Activity came to 60% in the experiment with Cyperus difformis [7], 100% in the experiment with Cyperus difformis [8], 60% in the experiment on Echinochloa oryzicola [9] and 100% in the experiment with Echinochloa oryzicola [10].
With `COCCN(C(=O)CCl)C(=C(C)C)c1ccc(C)cc1`, the Activity in experiment [1] was found to be 80%; in [2], 100%; in the experiment on Pontederia vaginalis [3], 60%; in the experiment on Pontederia vaginalis [4], 100%; in experiment [5] it was 80%; in experiment [6], 100%. Besides, the Activity with Cyperus difformis [7] turned out to be 100%; in the experiment with Cyperus difformis [8] it was 100%; in the experiment on Echinochloa oryzicola [9], 80%; in the experiment on Echinochloa oryzicola [10], 100%.
`CCC(CC)=C(c1ccccc1)N(CCOC)C(=O)CCl`: the Activity was 0% in [1]; 80% in experiment [2]; 0% in the experiment with Pontederia vaginalis [3]; 100% in the experiment on Pontederia vaginalis [4]; 0% in [5]; 100% in experiment [6]. Besides, the Activity is recorded as 40% with Cyperus difformis [7], 100% in the experiment on Cyperus difformis [8], 80% in the experiment on Echinochloa oryzicola [9] and 100% with Echinochloa oryzicola [10].
Turning to `COCCN(C(=O)CCl)C(=C(C)C)c1ccc(C(C)(C)C)cc1`, the Activity in experiment [1] turned out to be 80%; in experiment [2], 100%; with Pontederia vaginalis [3], 60%; with Pontederia vaginalis [4], 100%; in [5] it was 60%; in experiment [6], 100%. Moreover, the Activity in the experiment with Cyperus difformis [7] is given as 60%; in the experiment with Cyperus difformis [8] it was 100%; with Echinochloa oryzicola [9], 80%; in the experiment with Echinochloa oryzicola [10], 100%.
As for `COCCN(C(=O)CCl)C(=C(C)C)c1ccc(Oc2ccccc2)cc1`, the Activity in experiment [1] was 100%; in [2], 100%; in the experiment on Pontederia vaginalis [3], 100%; in the experiment with Pontederia vaginalis [4] it was 100%; in experiment [5] it was 60%; in experiment [6], 100%. Further, the Activity in the experiment with Cyperus difformis [7], in the experiment on Cyperus difformis [8], in the experiment on Echinochloa oryzicola [9] and in the experiment with Echinochloa oryzicola [10] was 100% throughout.
For `COCCN(C(=O)CCl)C(=C(C)C)c1cccc(Cl)c1`, the Activity in [1] stood at 80%; in experiment [2], 100%; in the experiment on Pontederia vaginalis [3], 60%; in the experiment with Pontederia vaginalis [4], 100%; in experiment [5], 80%; in experiment [6], 100%. For the same molecule, the Activity in the experiment on Cyperus difformis [7] was 80%; in the experiment on Cyperus difformis [8], 100%; with Echinochloa oryzicola [9] it was 80%; in the experiment on Echinochloa oryzicola [10], 100%.
Take `CC=C(c1ccccc1)N(CCOC)C(=O)CCl`: the Activity amounted to 0% in experiment [1]; 100% in [2]; 0% with Pontederia vaginalis [3]; 100% in the experiment with Pontederia vaginalis [4]; 0% in [5]; 100% in experiment [6]. Also, the Activity in the experiment on Cyperus difformis [7] is 60%; in the experiment on Cyperus difformis [8], 100%; in the experiment with Echinochloa oryzicola [9], 40%; with Echinochloa oryzicola [10] it was 100%.
As for `CCOCCCN(C(=O)CCl)C(=C(C)C)c1ccccc1`, the Activity in experiment [1] came to 40%; in [2] it was 100%; in the experiment on Pontederia vaginalis [3] it was 0%; with Pontederia vaginalis [4] it was 100%; in [5], 40%; in [6] it was 100%. Further, the Activity worked out at 60% in the experiment with Cyperus difformis [7], 100% in the experiment on Cyperus difformis [8], 80% in the experiment on Echinochloa oryzicola [9] and 100% in the experiment with Echinochloa oryzicola [10].
In the case of `C#CCOCCN(C(=O)CCl)C(=C(C)C)c1ccccc1`, the Activity in [1] stood at 100%; in [2], 100%; in the experiment with Pontederia vaginalis [3], 100%; in the experiment on Pontederia vaginalis [4], 100%; in experiment [5] it was 80%; in [6] it was 100%. Further, the Activity in the experiment with Cyperus difformis [7], in the experiment with Cyperus difformis [8], in the experiment with Echinochloa oryzicola [9] and with Echinochloa oryzicola [10] was 100% in each case.
In the case of `C=CCOCC(C)N(C(=O)CCl)C(=C(C)C)c1ccccc1` (stereo not given), the Activity was determined as 100% in experiment [1]; 100% in [2]; 40% with Pontederia vaginalis [3]; 100% in the experiment with Pontederia vaginalis [4]; 60% in experiment [5]; 100% in experiment [6]. Besides, the Activity in the experiment with Cyperus difformis [7] worked out at 60%; with Cyperus difformis [8] it was 100%; in the experiment on Echinochloa oryzicola [9], 40%; in the experiment on Echinochloa oryzicola [10], 100%.
